From patent EP4778918A1, “RADIOACTIVE POSITRON-EMITTING NUCLIDE CARBON-11 LABELED COMPOUND AND RADIOACTIVE COMPOSITION” (The University of Osaka, priority 2023, dated 2025)

Experiments:
[1] = tested on: PD1-/- mice; assay: Determination of therapeutic effect on myocarditis by PET/CT with [^11C]HCA2969 tracer; format: in vivo
Procedure: Groups of wild-type mice, placebo PD1-/- mice, AJM300-administered PD1-/- mice and anti-VLA-4 neutralizing antibody-administered PD 1-/- mice at 4 weeks of age were prepared. The placebo group was fed a normal diet and the AJM300-administered group was fed a diet containing 1% AJM300 from day 14 to day 28 after the start of rearing. The anti-VLA-4 neutralizing antibody-administered group was fed a normal diet and administered with anti-VLA -4 neutralizing antibody (10 mg/kg) intraperitoneally on days 14 and 21 after the start of rearing. On day 28 after the start of rearing, each mouse was anesthetized with isoflurane (1 to 3% in 2 L of O2) and injected with a [^11C]HCA2969 tracer (1 to 10 MBq: 10 µg of unlabeled HCA2969 containing 10 MBq of PET tracer) via a tail vein. Twenty minutes after the injection, PET/CT imaging was performed for 10 minutes.

[2] = tested on: MRL-Pdcd1-/- mice; assay: Administration of VLA4 inhibitor AJM300 to myocarditis model mice (survival, echocardiography); format: in vivo; conditions: compared with AJM300(-) group
Procedure: The AJM300 group (+) was administered with a mixed diet containing 1% of AJM300 from 2 weeks of age until death.
At 28 days of age, 9 mice in the AJM300(-) group and 10 mice in the AJM300(+) group were evaluated for cardiac function by echocardiography and then euthanized to collect heart and blood samples.

[3] = tested on: autoimmune myocarditis model rats; assay: Anti-VLA-4 neutralizing antibody or AJM300 administration in rat autoimmune myocarditis model (cardiac function); format: in vivo, Lewis rats; conditions: 21 days after induction of myocarditis; diet with 1% AJM300, or 5 mg/kg antibody intravenously at 0w, 1w, 2w, 3w; compared with placebo group
Excerpt: Study groups were: placebo group (5 animals), AJM300-administered group (4 animals), and neutralizing antibody-administered group (5 animals) administered with anti-VLA-4-neutralizing antibody. The placebo group was fed a diet mixed with placebo (0.43% METOLOSE + 0.14% Ac-Di-Sol) from 3 days before induction of myocarditis to 3 weeks. The AJM300-administered group was fed a diet mixed with 1% AJM300 from 3 days before induction of myocarditis to 3 weeks. The neutralizing antibody-administered group was intravenously administered with 5 mg/kg of neutralizing antibody at the time of induction of myocarditis (0w), 1 week after induction of myocarditis (1w), 2 weeks after induction of myocarditis (2w), and 3 weeks after induction of myocarditis (3w). Left ventricular contractile performance and heart rate were evaluated 21 days after induction of myocarditis.

[4] = tested on: MRL-Pdcd1-/- and wild-type mice; assay: Detection of myocarditis by PET/CT imaging with [^11C]HCA2969 tracer in mice; format: in vivo; conditions: about 1 to 10 MBq intravenously, days 25 to 26
Procedure: In the MRL-Pdcd1-/- and wild-type mice prepared in the above section 5, a [^11C]HCA2969 tracer (about 1 to 10 MBq) was administered intravenously via a tail vein under inhalation anesthesia with isoflurane on days 25 to 26, followed by PET/CT imaging.

[5] = tested on: EAE model mice; conditions: mouse, in vivo
[6] = tested on: autoimmune myocarditis model rat; assay: Detection of autoimmune myocarditis by PET/CT imaging with [^11C]HCA2969 tracer in rats; format: in vivo, Lewis rats; conditions: autoimmune myocarditis model rats at 3 weeks of induction; about 1 to 10 MBq intravenously
Procedure: An autoimmune myocarditis model rat was prepared by administering 10 mg/ml of Pig Cardiac Myosin (purified in-house from pig heart) and Adjuvant (CFA 10 mg/ml; Chondrex, Inc., 7002) to Lewis rats (male, 8 weeks old). A day of administration of the Pig Cardiac Myosin was set as Day 0. In this model, myocarditis reached its climax on Day 21. […] On Day 12, infiltration of inflammatory cells into cardiac muscle tissue began, and, on Day 19, more intense infiltration of the inflammatory cells was observed. On Day 25, destruction of the cardiac muscle tissue due to inflammation was observed.
In autoimmune myocarditis model rat prepared in the above section 2, a [^11C]HCA2969 tracer at about 1 to 10 MBq was administered intravenously via a tail vein under inhalation anesthesia with isoflurane at 3 weeks of induction, which is the climax of myocarditis, followed by PET/CT imaging.

[7] = tested on: EAE mice; conditions: mouse, in vivo
[8] = Stability of the produced [^11C]HCA2969 over time (quality test, radiochemical purity); format: physicochemical; conditions: immediately after synthesis and even 90 minutes after synthesis; final formulation, approximately 10% ethanol in physiological saline
Excerpt: [^11C]HCA2969 was produced according to the following procedure. A synthesis scheme is shown in FIG. 1. • (1) [^11C]CO2 was produced via nuclear reaction of ^14N(p,α)^11C using N2 gas as a target using a medical cyclotron (CYPRIS HM-18, Sumitomo Heavy Industries, Ltd.). The obtained [^11C]CO2 was introduced into a vapor phase method methyl iodide synthesizer (C-GPC-100, Sumitomo Heavy Industries, Ltd.) to synthesize […] ([^11C]CH3OTf) having high reaction activity. • (2) [^11C]CH3OTf was introduced into a reaction vessel containing 500 µL of a solution of 1 mg/mL HCA2969 precursor (QD) in acetone and 3 µL of 1 mol/L NaOH and subjected to bubbling. • (3) 100 µL of 0.1 mol/L NaOH was added to the solution obtained after the bubbling in the above step (2) and a deprotection reaction was performed at room temperature for 10 minutes. • (4) 1 mL of water for injection was added to the solution obtained after the deprotection in the above step (3), the mixture was mixed thoroughly, and the whole volume was injected into HPLC to fractionate and collect [^11C]HCA2969. A representative HPLC chromatogram is shown in FIG. 2. • (5) The fractionated and collected solution was diluted with water for injection, and the whole volume was introduced into a solid-phase extraction column (HLB column) to retain [^11C]HCA2969. […]

[9] = molecular target: T1, VLA-4 (Mus musculus, UniProt P09055+Q00651); assay: [^11C]HCA2969 binding to VLA-4 in mouse monocytes (saturation, Scatchard analysis); conditions: 2 × 10^6 spleen monocytes
T1 construct: monocytes collected from a spleen of a mouse; endogenous in cells; host or cells: primary monocytes from mouse spleen
T1 sequence (Q00651 41-1039): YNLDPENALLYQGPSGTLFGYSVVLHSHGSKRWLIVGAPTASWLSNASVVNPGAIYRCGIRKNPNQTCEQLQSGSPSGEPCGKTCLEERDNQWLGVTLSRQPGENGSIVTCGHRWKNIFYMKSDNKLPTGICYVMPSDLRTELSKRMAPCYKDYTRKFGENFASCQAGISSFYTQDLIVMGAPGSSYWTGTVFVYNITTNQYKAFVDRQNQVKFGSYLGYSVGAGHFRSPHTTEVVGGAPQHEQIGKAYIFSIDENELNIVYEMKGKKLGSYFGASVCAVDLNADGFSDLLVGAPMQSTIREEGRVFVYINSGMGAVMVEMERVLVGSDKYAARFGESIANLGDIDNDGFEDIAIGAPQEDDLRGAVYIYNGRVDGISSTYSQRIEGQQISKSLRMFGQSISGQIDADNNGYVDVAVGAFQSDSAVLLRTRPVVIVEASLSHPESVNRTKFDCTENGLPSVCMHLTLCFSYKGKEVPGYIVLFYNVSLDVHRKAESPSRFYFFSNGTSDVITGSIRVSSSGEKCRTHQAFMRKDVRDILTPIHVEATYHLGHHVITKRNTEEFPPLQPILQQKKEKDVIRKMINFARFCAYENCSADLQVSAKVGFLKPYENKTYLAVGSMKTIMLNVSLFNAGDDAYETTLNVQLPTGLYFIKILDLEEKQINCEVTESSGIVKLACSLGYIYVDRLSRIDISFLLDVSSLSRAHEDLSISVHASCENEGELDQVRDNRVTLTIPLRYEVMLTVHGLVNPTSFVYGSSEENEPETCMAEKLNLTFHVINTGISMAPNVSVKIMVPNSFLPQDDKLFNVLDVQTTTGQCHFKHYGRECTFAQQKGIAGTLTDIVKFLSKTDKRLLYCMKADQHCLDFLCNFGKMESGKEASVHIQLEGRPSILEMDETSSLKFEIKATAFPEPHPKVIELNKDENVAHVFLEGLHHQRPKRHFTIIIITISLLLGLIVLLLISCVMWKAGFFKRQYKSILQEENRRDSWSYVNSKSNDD
T1 sequence (P09055 21-798): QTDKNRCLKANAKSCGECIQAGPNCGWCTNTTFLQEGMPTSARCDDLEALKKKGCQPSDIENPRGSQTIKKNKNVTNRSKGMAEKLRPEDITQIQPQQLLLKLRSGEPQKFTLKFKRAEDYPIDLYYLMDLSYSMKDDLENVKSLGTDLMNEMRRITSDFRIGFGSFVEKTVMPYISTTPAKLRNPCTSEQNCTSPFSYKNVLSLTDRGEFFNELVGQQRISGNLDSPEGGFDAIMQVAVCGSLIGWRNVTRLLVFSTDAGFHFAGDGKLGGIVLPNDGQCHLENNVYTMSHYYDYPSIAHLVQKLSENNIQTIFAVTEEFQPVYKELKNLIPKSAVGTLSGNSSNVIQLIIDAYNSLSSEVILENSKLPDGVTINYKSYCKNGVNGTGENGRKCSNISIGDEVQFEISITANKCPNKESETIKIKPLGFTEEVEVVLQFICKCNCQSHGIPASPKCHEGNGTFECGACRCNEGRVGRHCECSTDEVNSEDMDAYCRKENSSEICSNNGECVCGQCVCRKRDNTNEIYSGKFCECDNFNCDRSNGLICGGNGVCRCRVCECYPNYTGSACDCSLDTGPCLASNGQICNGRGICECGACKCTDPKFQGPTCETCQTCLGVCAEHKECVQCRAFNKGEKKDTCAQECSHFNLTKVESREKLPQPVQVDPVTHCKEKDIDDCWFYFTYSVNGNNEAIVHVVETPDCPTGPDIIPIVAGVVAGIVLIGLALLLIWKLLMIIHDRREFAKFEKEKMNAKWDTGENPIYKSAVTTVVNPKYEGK
Procedure: Monocytes collected from a mouse were used to evaluate the binding of a [^11C]HCA2969 to VLA-4.
2 × 10^6 monocytes collected from a spleen of a mouse and a [^11C]HCA2969 synthesized in the above section 1 were added to buffer (10mM Tris pH 7.5, 0.1% BSA, 150 mM NaCl, 2 mM MnCl2, 2 mM D-glucose) at concentrations of 0.025 nM, 0.1 nM, 0.4 nM, 1.6 nM, 6.4 nM and 25.6 nM, respectively, and mixed. After mixing, the cells were incubated at room temperature for 20 minutes and washed 2 times with buffer (10mM Tris pH 7.5, 0.1% BSA, 150 mM NaCl, 2 mM MnCl2, 2 mM D-glucose). Radiation dose was measured for the washed cells using a scintillation counter.

[10] = echocardiography at 28 days of age, diet containing 1% of AJM300, t-test p=0.0231

COC(=O)[C@H](Cc1ccc(-n2c(=O)c3cc(N(C)C)ccc3n(C)c2=O)cc1)NC(=O)c1c(Cl)cccc1Cl [AJM300, carotegrast methyl]
accumulation of the [^11C]HCA2969 tracer in the cardiac region ([1]; treated PD1-/- mice compared to the placebo group, diet containing 1% AJM300 day 14 to day 28, or antibody 10 mg/kg intraperitoneally on days 14 and 21): lower
heart rate [2, 10]: significantly ameliorated bradycardia
left ventricular contractile performance: % Fractional Shortening (%) [2, 10]: significantly improved
Survival period (Kaplan-Meier) ([2]; mixed diet containing 1% of AJM300 from 2 weeks of age, Log-rank test p=0.0022): significantly prolonged
cardiac function (left ventricular contractile performance and heart rate) [3]: no effect

CN(C)c1ccc2c(c1)c(=O)n(-c1ccc(CC(NC(=O)c3c(Cl)cccc3Cl)C(=O)O)cc1)c(=O)n2[11CH3] (stereo not shown) [[^11C]HCA2969]
tracer accumulation in hearts ([4]; two MRL-Pdcd1-/- mice): observed
tracer accumulation in hearts ([4]; two wild-type mice): no tracer accumulation
accumulation of the [^11C]HCA2969 tracer in the cardiac region ([1]; PD1-/- mouse, untreated, day 28, imaging twenty minutes after the injection): observed
accumulation of the tracer signal in the brain [5]: increasing trend
accumulation of the tracer signal in the spinal cord [5]: significant increase
tracer accumulation in hearts [6]: no tracer accumulation
SUV mean [7]: high accumulation
SUV median [7]: high accumulation
radiochemical purity [8]: ≥ 90%
Bmax [9]: 81.85 Bq
Kd ([9]; 0.025 nM to 25.6 nM, room temperature, 20 minutes, read-out: equilibrium dissociation constant Kd): 0.16 nM
